In data set [1] the test system is FXR-regulated gene expression (SHP, BSEP, FGF-19) in human HuH7 hepatoma cells. The data set is described as follows: Cell-based RNA assay of FXR-regulated gene expression. The following applies: Huh-7, 11 h at 37° C., RT-qPCR. The method, then: […]. See Kawamata et al JBC 278 (11)[…] (2003). […]. After 30 min at RT, cAMP was measured using an HTRF readout. EC50 values for FXR-regulated gene expression were determined using a cell-based RNA assay. […] After 11 h at 37° C., RNA was isolated and analyzed by RT-qPCR using primers to FXR-related genes: small heterodimer partner (SHP), bile salt export pump (BSEP) and fibroblast growth factor 19 (FGF-19).
In general terms: Quantitative PCR measures a nucleic acid by following its amplification.

The conditions of data set [2]: other FXR agonists; cited from earlier work.
The test system of data set [3] is FXR-regulated gene expression in liver and ileum. The data set is described as follows: Mechanism of action: tissue RNA by RT-qPCR and RNAseq after a single oral dose. The following applies: C57BL/6 mice, single oral dose, Compound 1 10 mg/kg, OCA 30 mg/kg, 6 hours.
Procedure: The RNA was analyzed by RT-qPCR and RNAseq.
For RNAseq analysis, mRNA was extracted from total liver and sequenced using standard Illumina library preparation and sequencing protocols. Differentially expressed genes (DEG) were determined using RSEM and edgeR software packages and analyzed using Advaita Bio's iPathwayGuide software.
Data set [4] in a line: Pharmacokinetic evaluation in rats, intragastric infusion. It is filed as in vivo. The note with it: SD rats, intragastric 2 mg/kg.
Procedure: Drug Preparation: a certain amount of the drug was taken and added into a 2% Klucel LF+0.1% Tween 80 aqueous solution, to prepare a clear solution or a uniform suspension.
Dosage: SD rats were fasted overnight and given the drug by intragastric infusion at an administrated dose of 2 mg/kg and an administrated volume of 10 mL/kg each.
Operation: rats were dosed by intragastric infusion with the compounds. […] The heparinized sample tubes were then stored at −20° C., and the rats were allowed to eat food 2 h after the dosage.
Determination of contents of the compounds to be tested in the plasma of rats after intragastric infusion of the drugs at different concentrations: the plasma samples were thawed at room temperature, 50 μL each was taken and added into 130 μL of an internal standard working solution (1000 ng/mL, acetonitrile, tolbutamide), and the mixture was whirled for about 1 min and then centrifugated at 4° C. and 13000 rpm for 10 min. 50 μL of the supernatant was taken and mixed with 100 μL of 50% acetonitrile water, and then introduced for LC/MS/MS analysis.
The target in a further data set is T1, THRβ (Homo sapiens, UniProt P10828).
T1 sequence (P10828 1-461): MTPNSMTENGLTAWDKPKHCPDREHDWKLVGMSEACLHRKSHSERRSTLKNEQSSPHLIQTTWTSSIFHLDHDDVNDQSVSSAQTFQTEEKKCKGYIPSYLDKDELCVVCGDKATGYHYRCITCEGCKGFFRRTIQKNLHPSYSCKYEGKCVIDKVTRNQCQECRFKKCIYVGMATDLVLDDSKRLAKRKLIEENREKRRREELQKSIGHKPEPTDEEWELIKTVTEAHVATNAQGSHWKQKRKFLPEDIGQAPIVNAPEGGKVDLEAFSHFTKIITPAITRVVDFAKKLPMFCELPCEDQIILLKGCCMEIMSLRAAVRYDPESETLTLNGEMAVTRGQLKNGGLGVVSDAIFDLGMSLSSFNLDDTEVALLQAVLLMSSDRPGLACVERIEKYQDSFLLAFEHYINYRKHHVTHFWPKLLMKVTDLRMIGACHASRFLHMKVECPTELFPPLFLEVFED
The experiment in a line: Binding activity to the thyroxine receptor beta. The note with it: ratio of binding IC50.

The target of another data set is T2, THRα (Homo sapiens, UniProt P10827).
T2 sequence (P10827 1-410 isoform P10827-2): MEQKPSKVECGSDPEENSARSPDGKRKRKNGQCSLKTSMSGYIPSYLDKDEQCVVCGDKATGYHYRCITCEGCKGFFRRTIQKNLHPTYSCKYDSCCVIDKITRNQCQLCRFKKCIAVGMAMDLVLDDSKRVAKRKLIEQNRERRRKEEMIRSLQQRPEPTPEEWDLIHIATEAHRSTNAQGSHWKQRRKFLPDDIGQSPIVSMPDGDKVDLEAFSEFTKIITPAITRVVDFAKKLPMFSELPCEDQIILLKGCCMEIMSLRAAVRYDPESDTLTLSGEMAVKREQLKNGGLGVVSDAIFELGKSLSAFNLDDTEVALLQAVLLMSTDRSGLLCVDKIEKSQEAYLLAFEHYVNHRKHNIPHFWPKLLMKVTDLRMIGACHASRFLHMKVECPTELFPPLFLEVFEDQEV
The experiment in a line: Binding activity to THRα. The note with it: read-out: IC50 THRα binding force.

Like-named read-outs stand apart in the source and are kept apart here.

Turning to `CC[C@H]1[C@@H](O)[C@@H]2[C@H](CC[C@]3(C)[C@@H]([C@H](C)CCC(=O)O)CC[C@@H]23)[C@@]2(C)CC[C@@H](O)C[C@@H]12` [OCA, obeticholic acid], the EC50 turned out to be 200 nM in data set [1] (read-out: BSEP Gene induction/HuH7 EC50), 130 nM in data set [1] (read-out: FGF-19 Gene Induction/HuH7 EC50) and 200 nM in data set [1] (read-out: SHP Gene induction/HuH7 EC50). Also, the “pruritus in longer term studies” value in data set [2] is recorded as “known to result in pruritus”. For the same compound, the “number of global pathways enriched (liver RNAseq)” value in data set [3] was found to be 6. Moreover, the “number of differentially expressed NASH-related genes modulated vs vehicle (liver RNAseq)” value in data set [3] (fold change≥1.5) was 44.
Consider `CC(C)c1cc(Oc2c(Cl)cc(-n3nc(C#N)c(=O)[nH]c3=O)cc2Cl)n[nH]c1=O` [Reference compound, 2-[3,5-Dichloro-4-(5-isopropyl-6-oxo-1,6-dihydropyridazin-3-yloxy)phenyl]-3,5-dioxo-2,3,4,5-tetrahydro[1,2,4]triazine-6-carbonitrile, reference compound], for which, in data set [4], the Curve area is 12854 ± 961 ng·h/mL, the “Peak blood drug concentration” value is 1163 ± 97.1 ng/mL and the Time to peak turned out to be 5.3 ± 1.15 h.
With `CC1(C)CCc2c(Oc3c(Cl)cc(-n4cc(C#N)c(=O)[nH]c4=O)cc3Cl)n[nH]c(=O)c21` [Compound 6], in data set [4], the Curve area was found to be 9242 ± 1245 ng·h/mL and the Time to peak is 5.33 ± 1.15 h.
For `O=C(O)c1cc(F)c2nc(N3[C@@H]4CC[C@H]3C[C@@H](OCc3c(-c5ccccc5OC(F)(F)F)noc3C3CC3)C4)sc2c1` [tropifexor], the “pruritus in longer term studies” value in data set [2] is on record as “known to result in pruritus”.
A word on the IC50: it is the concentration at which inhibition is half-maximal. Regarding `N#Cc1nn(-c2cc(Cl)c(Oc3n[nH]c(=O)c4c3CCCC4)c(Cl)c2)c(=O)[nH]c1=O` [Compound 3], the “THRα/β selectivity (factor)” value on THRβ was more than 8.1. For the same compound, on THRα, the IC50 was more than 10000 nM.
In the case of `N#Cc1nn(-c2cc(Cl)c(Oc3n[nH]c(=O)c4c(Cl)cccc34)c(Cl)c2)c(=O)[nH]c1=O` [Compound 7], the “THRα/β selectivity (factor)” value at THRβ is listed as more than 6.80. Moreover, the IC50 on THRα is more than 10000 nM.
For the compound `O=C(O)c1ccnc(N2CC(O)(c3ccc(OCc4c(-c5c(Cl)cccc5Cl)noc4C4CC4)cc3Cl)C2)c1` [cilofexor], the “pruritus in longer term studies” value in data set [2] was “known to result in pruritus”.
